Here are results for 1 molecule from paper PMC12426935, “On-Cell Saturation Transfer Difference NMR Spectroscopy on Ion Channels: Characterizing Negative Allosteric Modulator Binding Interactions of P2X7” (Journal of the American Chemical Society, 2025).

Like-named read-outs stand apart in the source and are kept apart here.

The target of one assay is T1, F88A hP2X7 (Homo sapiens, UniProt Q99572, F88A).
T1 sequence (Q99572 1-595 F88A): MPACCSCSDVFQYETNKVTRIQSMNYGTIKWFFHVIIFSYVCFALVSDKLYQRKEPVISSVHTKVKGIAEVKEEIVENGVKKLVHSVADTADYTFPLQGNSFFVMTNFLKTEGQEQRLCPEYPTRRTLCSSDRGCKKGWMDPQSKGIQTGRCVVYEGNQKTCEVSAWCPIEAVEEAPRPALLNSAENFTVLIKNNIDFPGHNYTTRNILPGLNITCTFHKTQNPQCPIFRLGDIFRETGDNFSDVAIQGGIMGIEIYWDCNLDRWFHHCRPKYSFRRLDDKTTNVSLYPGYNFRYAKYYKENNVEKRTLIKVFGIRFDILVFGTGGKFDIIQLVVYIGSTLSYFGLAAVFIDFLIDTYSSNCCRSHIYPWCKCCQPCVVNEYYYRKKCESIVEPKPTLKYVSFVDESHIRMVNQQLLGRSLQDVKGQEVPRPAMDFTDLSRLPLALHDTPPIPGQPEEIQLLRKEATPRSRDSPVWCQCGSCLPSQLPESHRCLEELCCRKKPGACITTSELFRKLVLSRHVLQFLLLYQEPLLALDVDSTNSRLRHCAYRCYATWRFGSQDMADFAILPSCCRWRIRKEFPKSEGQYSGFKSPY
As to the kind of experiment: fura-2 intracellular calcium assay on HEK-293 stable cell line expressing NAM-site mutant F88A hP2X7. The class given is cell-based. Particulars: for IC50: n = 3. How it is done:
(§1) Transfection was performed using lipofectamine 2000 (Fisher Scientific), and cells were subjected to Geneticin (800 μg/mL) selection for 2–3 weeks. This was followed by single cell cloning by limiting dilution in 96-well plates. Individual clones were selected for further study based on ATP-induced TO-PRO-3 uptake on a BD Cytoflex flow cytometer. Cell lines were maintained in DMEM:F12 media supplemented with 10% fetal bovine serum (PanBiotech), penicillin and streptomycin (Fisher Scientific) and kept in a humidified incubator with 5% CO2. Stable P2X7-expressing cells were kept under Geneticin selection at a concentration of 400 μg/mL. Passaging was performed twice weekly using 0.25% Trypsin-EDTA (Fisher Scientific).
(§2) P2X7 responses were measured by monitoring intracellular calcium responses using fura-2AM loaded cells. Cells were plated at 2–2.5 × 10^4 cells/well the day before experiments in 96-well plates (NUNC) coated with 50 μg/mL poly-D-lysine (Merck Millipore). A loading buffer containing 2 μM fura-2AM (HelloBio) and 250 μM sulfinpyrazone (Merck Millipore) in a low divalent buffer (145 mM NaCl, 5 mM KCl, 0.2 mM CaCl2, 10 mM HEPES, 13 mM glucose, pH 7.3) was added to cells for 45 min at 37 °C. After loading, the buffer was removed and replaced with calcium-containing extracellular solution (145 mM NaCl, 5 mM KCl, 2 mM CaCl2, 10 mM HEPES, 13 mM glucose, pH 7.3). Responses were measured using a Flexstation 3 plate reader (Molecular Devices) with dual excitation wavelengths of 340 and 380 nm and single emission wavelength of 510 nm. The sample interval was 3.5 s, and each well was recorded for 180 s. Fura-2 ratios were calculated in Softmax Pro v5.4; zero baseline was applied, and responses were measured as normalized area under the curve (AUC). Dose inhibition curves were plotted using GraphPad Prism v6 nonlinear regression (three parameter fit) and log IC50 values reported.
For orientation: A change in cytosolic calcium serves as a functional read-out for many receptors and channels.

The target of a further assay is T2, mouse P2X7 (mP2X7) (Mus musculus, UniProt Q9Z1M0).
T2 construct: expressed in transfected cells
T2 sequence (Q9Z1M0 1-595): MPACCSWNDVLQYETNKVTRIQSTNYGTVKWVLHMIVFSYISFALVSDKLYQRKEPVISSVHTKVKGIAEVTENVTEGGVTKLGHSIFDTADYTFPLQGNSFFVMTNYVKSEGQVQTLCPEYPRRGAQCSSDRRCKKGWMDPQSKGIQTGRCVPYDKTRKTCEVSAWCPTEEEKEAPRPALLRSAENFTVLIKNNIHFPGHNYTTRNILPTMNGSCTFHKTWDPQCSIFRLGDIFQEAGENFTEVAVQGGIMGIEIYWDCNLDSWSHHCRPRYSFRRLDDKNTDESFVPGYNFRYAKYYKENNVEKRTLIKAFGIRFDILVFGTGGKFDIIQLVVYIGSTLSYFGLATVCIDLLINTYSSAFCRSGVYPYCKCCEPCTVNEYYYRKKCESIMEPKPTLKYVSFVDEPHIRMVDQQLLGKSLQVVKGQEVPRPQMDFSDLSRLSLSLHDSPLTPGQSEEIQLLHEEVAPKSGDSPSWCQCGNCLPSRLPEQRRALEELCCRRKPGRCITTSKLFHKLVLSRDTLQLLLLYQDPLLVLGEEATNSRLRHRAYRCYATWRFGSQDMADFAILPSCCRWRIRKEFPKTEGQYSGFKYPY
As to the kind of experiment: fura-2 intracellular calcium assay on HEK-293 stable cell line expressing mouse P2X7. The assay is classed as cell-based. As for the experimental part: as §1, with “Genetically edited HEK-293 cells lacking P2Y2 receptors were used to generate stable cell lines expressing human P2X7 (hP2X7), mouse P2X7 (mP2X7), rat P2X7 (rP2X7), or mutants of the hP2X7 NAM site (F88A, M105A, and F103A). Transfection” for “Transfection”
as §2, with “Dose inhibition curves were plotted using GraphPad Prism v6 nonlinear regression (three parameter fit) and log IC50 values reported.” left out

In the case of `O=C(NCC1(N2CCN(c3ccccc3)CC2)CCOCC1)c1cccnc1Sc1ccccc1` [JNJ-47965567], the IC50 (as a rule, the concentration that inhibits the measured activity by half) on F88A hP2X7 (F88A hP2X7, agonist ATP, log IC50 ± standard error, read-out: Log IC50 (converted)) is 121 nM; at F88A hP2X7 (F88A hP2X7, agonist ATP, mean in brackets, read-out: mean IC50), 125 nM; at F88A hP2X7 (F88A hP2X7, agonist BzATP, mean in brackets, read-out: mean IC50), 53.8 nM; at mouse P2X7 (mP2X7) (Mouse P2X7 (Table 1), mean in brackets, n = 3), 125 nM. Besides, the “increase in IC50 at F88A relative to hP2X7” value on F88A hP2X7 (F88A hP2X7 vs hP2X7) was 10 fold. Also, the “difference between hP2X7 and mP2X7 IC50 values” at mouse P2X7 (mP2X7) (mP2X7 vs hP2X7) is 13 fold.
